Results on one sequence are retold here after publication PMC5444726, “A CD44-specific peptide, RP-1, exhibits capacities of assisting diagnosis and predicting prognosis of gastric cancer” (Oncotarget, 2017).

In the test the test system is MKN-28 cells not expressing CD44 transgenes. In words: Confocal immunofluorescence of peptide binding to non-CD44 MKN-28 cells. The class given is cell-based, human. Conditions: 100 μM Alexa Fluor 594 labeled peptide, 20 min, co-culture with CD44-overexpressing cells, confocal microscopy. How it is done:
Plasmids containing cDNA of CD44 protein were synthesized by GENECHEM, Shanghai, China. Using Pfu polymerase and two oligonucleotides ([…] and […]), the CD44 cDNA was cloned into Xhol and ECOR1 sites of GV146 (GENECHEM, Shanghai, China) by recombinant PCR. Then, CD44-negative MNK-28 cells were transfected with the plasmid with Lipofectamine 2000 reagent (Invitrogen, California, USA), and then the efficiency of CD44 expression in MKN-28 cells was tested. Finally, two cell lines were generated as following: MKN-28-con with no CD44 expression and MKN-28-CD44-ox with CD44 overexpression labeled with enhanced green fluorescent protein (EGFP).
For the preparation of confocal laser microscopy, the transfected MNK-28 cancer cells were washed with phosphate buffer saline (PBS) three times, then fixed with 4% paraformaldehyde at ambient temperature for 30 min, and blocked with 5% BSA (w/v) in PBS at 37°C for 1 h. The blocked cells were sequentially incubated with 100 μM RP-1 or WYP labeled with Alexa Fluor 594 for 20 min, and counterstained with 4,6-diamidino-2-phenylindole (DAPI). […] For the evaluation of the correlation of fluorescent intensities between CD44-EGFP and RP-1-Fluor 594, a semi-quantitative analysis was performed with ImageJ 1.48v software (National Institutes of Health, Maryland, USA) by randomly selecting and observing 10 fields of vision. […]

For the sequence “WHPWSYLWTQQA [RP-1, CD44-specific peptide … screened from a 12-mer phage peptide library]”, the “binding of peptide to cells without CD44” value is given as “bound considerably lower amounts of RP-1 peptide”.
